Reference: BindingDB's records for doi:10.1254/jjp.52.195 (Niigata College of Pharmacy, 1990)

Key:
[1] = target: 5-hydroxytryptamine receptor 1B (Rattus norvegicus, UniProt P28564)
[2] = target: Beta-1 adrenergic receptor (Rattus norvegicus, UniProt P18090)
[3] = target: Beta-2 adrenergic receptor (Rattus norvegicus, UniProt P10608)
Beta-2 adrenergic receptor, sequence (P10608 whole entry): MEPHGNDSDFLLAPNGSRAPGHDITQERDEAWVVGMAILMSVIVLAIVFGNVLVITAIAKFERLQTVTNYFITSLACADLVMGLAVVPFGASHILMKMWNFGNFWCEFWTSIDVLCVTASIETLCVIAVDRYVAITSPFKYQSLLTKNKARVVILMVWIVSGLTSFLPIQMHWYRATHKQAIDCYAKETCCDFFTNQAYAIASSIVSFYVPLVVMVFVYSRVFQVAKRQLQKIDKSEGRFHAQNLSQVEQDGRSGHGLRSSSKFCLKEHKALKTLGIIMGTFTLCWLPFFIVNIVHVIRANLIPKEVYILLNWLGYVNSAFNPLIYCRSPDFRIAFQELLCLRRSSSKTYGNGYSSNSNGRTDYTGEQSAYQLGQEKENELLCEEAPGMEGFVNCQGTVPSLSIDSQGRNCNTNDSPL

Beta-1 adrenergic receptor, sequence (P18090 whole entry): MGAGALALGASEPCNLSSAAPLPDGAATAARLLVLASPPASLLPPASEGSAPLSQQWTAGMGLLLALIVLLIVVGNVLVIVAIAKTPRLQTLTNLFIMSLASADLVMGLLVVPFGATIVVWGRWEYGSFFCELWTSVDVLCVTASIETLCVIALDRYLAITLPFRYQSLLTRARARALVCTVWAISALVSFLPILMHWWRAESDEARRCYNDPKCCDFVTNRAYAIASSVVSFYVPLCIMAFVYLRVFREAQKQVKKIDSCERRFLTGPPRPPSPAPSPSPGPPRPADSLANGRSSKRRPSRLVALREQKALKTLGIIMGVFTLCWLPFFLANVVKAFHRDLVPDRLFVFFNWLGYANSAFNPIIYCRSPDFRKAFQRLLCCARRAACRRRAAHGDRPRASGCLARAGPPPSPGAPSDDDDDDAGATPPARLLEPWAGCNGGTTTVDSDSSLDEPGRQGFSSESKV
5-hydroxytryptamine receptor 1B, sequence (P28564 whole entry): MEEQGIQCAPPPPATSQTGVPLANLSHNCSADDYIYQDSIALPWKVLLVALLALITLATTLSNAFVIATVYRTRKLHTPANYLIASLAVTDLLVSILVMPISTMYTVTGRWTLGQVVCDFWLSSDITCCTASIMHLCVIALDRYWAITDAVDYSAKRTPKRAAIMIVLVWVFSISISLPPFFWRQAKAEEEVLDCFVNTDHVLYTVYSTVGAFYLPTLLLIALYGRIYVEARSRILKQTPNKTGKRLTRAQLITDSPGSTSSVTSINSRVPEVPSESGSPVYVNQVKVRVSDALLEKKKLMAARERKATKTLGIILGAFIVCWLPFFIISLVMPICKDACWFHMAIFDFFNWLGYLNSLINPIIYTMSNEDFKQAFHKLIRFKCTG

Row | Ki [1] | Ki [2] | Ki [3] | Compound
1 | 0.174 µM | 0.00776 µM | 0.00977 µM | C=CCOc1ccccc1OCC(O)CNC(C)C (stereo not drawn)
2 | 0.0562 µM | 0.00282 µM | 0.00245 µM | CC(C)CNCC(O)COc1cccc2ccccc12 (stereo not drawn)
3 | > 10 µM | – | – | CC(C)NCC(O)c1ccc(NS(C)(=O)=O)cc1 (racemic) [Sotalol,(-)]
4 | 2 µM | 0.012 µM | – | CC(CCc1ccccc1)NCC(O)c1ccc(O)c(C(N)=O)c1 (stereo not drawn) [2-hydroxy-5-{1-hydroxy-2-[(4-phenylbutan-2-yl)amino]ethyl}benzamide]
5 | 0.0708 µM | – | – | C=CCc1ccccc1OC[C@@H](O)CNC(C)C [ALPRENOLOL,(-)]
6 | > 10 µM | – | – | COCCc1ccc(OCC(O)CNC(C)C)cc1 (stereo not drawn) [Betalok]
7 | 0.0107 µM | 0.00018 µM | 0.00055 µM | CC(C)(C)NCC(O)CSc1nc(-c2ccc(C(N)=O)s2)cs1 (stereo not drawn) [CAS_52560-77-7]
8 | 1.29 µM | 0.00437 µM | 0.0132 µM | COc1ccccc1OCCNCC(O)c1ccc(C)c(S(N)(=O)=O)c1 (stereo not drawn) [CAS_93633-92-2]
9 | 3.89 µM | 0.195 µM | – | Cc1ccc(OC[C@@H](O)[C@H](C)NC(C)C)c2c1CCC2 [ICI 118,551]
10 | > 10 µM | 0.245 µM | – | CC(=O)Nc1ccc(OCC(O)CNC(C)C)cc1 (stereo not drawn) [Practolol,(-)]
11 | > 10 µM | – | – | CC(C)NC[C@H](O)COc1ccc(CCOCC2CC2)cc1 [[(2S)-3-{4-[2-(cyclopropylmethoxy)ethyl]phenoxy}-2-hydroxypropyl](propan-2-yl)amine]
12 | > 10 µM | – | – | COCCc1ccc(OC[C@H](O)CNC(C)C)cc1 [d-Metoprolol]
13 | > 10 µM | – | – | COCCc1ccc(OC[C@@H](O)CNC(C)C)cc1 [l-Metoprolol]

Row | Compound | Ki [1] | Ki [2] | Ki [3]
14 | COc1ccc(OC)c([C@@H](O)[C@H](C)NC(C)(C)C)c1 [CAS_1937-89-9] | > 10 µM | 3.72 µM | 0.468 µM
15 | CC(C)NCC(O)COc1cccc2[nH]ccc12 (stereo not drawn) [LB-46] | – | 0.00066 µM | –
